In patent US20140206028A1, “Stable Electrically Active Neurons from Adult Tissue” (University of Central Florida Research Foundation, Inc., priority 2011, published 2014):

What was measured:
Assay type in all cases: cell-based
[1] = test system: adult rat hippocampal neurons; test: Control of neuronal division in dissociated adult rat hippocampal neuron culture (cell population, neurite length, marker expression); conditions: for elimination of division of cultured neurons by mitotic inhibitors: added to culture medium on 2 DIV, FudR 10 and 50 μM; for neuronal division after addition to the culture medium: roscovitine added to the culture medium (at 3 div in MEA work)
Protocol: The hippocampi of adult rats (Charles River, age 6-12 months) were dissected and homogenized into small tissue fragments in cold medium (˜4° C.) consisting of Hibernate-A, Glutamax, and antibiotic-antimycotic. The tissue was then digested for 30 minutes at 37° C. in calcium-free Hibernate-A (HA) containing 6 mg papain/12 ml (HA). Following digestion, the tissue was washed three times with cold Hibernate-A media to remove any active enzyme. Next, the tissue was suspended in Dissociation Media (Table 1), formulated for dissociation of rat and mouse adult brain tissue into individual cells and dissociated into individual cells through mechanical dissociation with fire-polished Pasteur pipettes. The dissociated cells were suspended in Plating Media (Table 1), used after tissue dissociation to promote neuronal attachment and regeneration, and then deposited onto DETA-coated glass cover slips for 30-45 minutes. DETA, with its triamine functional group exposed at the surface, strongly attaches to neurons and allows for all non-neuronal debris such as ECM proteins, myelin debris, and cell fragments to be washed from the cover slip surface (D. A. Stenger et al., 1993; J. J. Hickman et al., 1994; M. Das et al., 2005; A. E. Schaffner et al., 1995). Following this washing step, fresh Plating medium was applied and remained for the first 3 DIV. On 3 DIV and every fourth subsequent day, one half of the medium was removed and replaced with Maintenance Media (FIG. 1, Table 1), supporting the long-term maintenance of these neurons. […] The osmolarity of the media was adjusted to match the osmolarity of adult rat cerebrospinal fluid (295-305 mOsm) (S. C. Baraban et al., 1997; R. A. Fishman and G. D. Silverberg, 2002). In the Dissociation Medium (Table 1), the use of caspase inhibitors and antioxidants (M. Das et al., 2007) during the dissociation of the tissue minimized both oxidative damage as well as the progression into apoptosis which normally results from cellular damage during this stage. […] For long-term survival, the anti-oxidants were removed from the Maintenance Medium (Table 1).
After neuronal confluence, 25 μM glutamate ((N-Acetyl-L-glutamic acid, Aldrich, 855642) triggers induction of neuronal electrical recovery (D. Edwards et al., 2010). Control of the division of neurons in this culture system was investigated experimentally as follows: (1) bFGF removal from both the Plating and Maintenance medium. (2) Fluorodeoxyuridine (FudR, Sigma-Aldrich, F-0503) addition at 10 and 50 μM (3) arabinoside-D (ara-C, Sigma, C-6645) plus deoxycytidine addition. (4) Trolox (Sigma, 238813) addition at 40 and 100 μM. (5) Aphidicolin (Aph, Sigma, A0781) addition at 1.5 μM. (6) Roscovitine (Rosc, Sigma, R7772) addition at 1, 5, and 10 μM. All factors were added before the onset of neuronal division (2 DIV), some after the onset of division (after 3 DIV).
To prepare cells for immunocytochemical characterization, cover slips were rinsed twice with Phosphate Buffered Saline (PBS). Cells were fixed with 4% paraformaldehyde for ten minutes at room temperature, and subsequently rinsed three times with PBS. Cells were permeabilized for five min in PBS with 5 mM Lysine and 0.5% Triton X-100, and were then blocked for two hours by adding 5% normal donkey serum. Anti-Neurofilament-M polyclonal antibody (Nf-M, intracellular filament found in mature neurons, Chemicon, AB 1981, diluted 1:1000), anti-NeuN (nuclear marker in mature neurons, Chemicon, diluted 1:1000), anti-Ki-67 (nuclear marker in dividing cells, Chemicon, diluted 1:1000), anti-NR2A (NMDA channel subunit expressed in the post-synaptic cell membrane, AB1548, diluted 1:75), anti-NR2B (NMDA channel subunit expressed in the post-synaptic cell membrane, MAB5216, diluted 1:150) were added in blocking solution for 12 hr at 4° C. After 3 washes with PBS, fluorescently labeled secondary antibodies (Invitrogen, A1011, A21449, and A11029) were applied for two hours. […]

[2] = test system: adult rat hippocampal neurons on MEAs; test: MEA recording of spontaneous activity, adult hippocampal neurons; conditions: adult cultures
Protocol: Adult neurons were extracted, dissociated, cultured, and maintained. Briefly, the hippocampi of adult rats (Charles River, age 6-12 months) were dissected and homogenized into small tissue fragments in cold medium (˜4° C.) consisting of Hibernate-A, glutamax, and antibiotic-antimycotic. The tissue was digested for 30 minutes at 37° C. in calcium-free Hibernate-A (HA) containing 6 mg papain/12 ml (HA no calcium). Following digestion, the tissue was washed three times with cold HA media to remove any active enzyme. Next, the tissue was suspended in Dissociation Medium and broken apart into individual cells through mechanical dissociation with fire-polished Pasteur pipettes. The dissociated cells were suspended in Plating medium and then deposited onto DETA (N-1 [3-(trimethoxysilyl) propyl]-diethylenetriamine, United Chemical Technologies Inc., Bristol, Pa., T2910KG) coated glass cover slips. After 30-45 minutes, the cover slips were washed with warm HA by gently swirling the medium to remove tissue debris. Following this washing step, fresh Plating medium was applied and remained for the first 3 div. On 3 div the medium was removed and replaced by Maintenance Medium with 5 μM Roscovitine (Rosc, Sigma, R7772). All research was approved by the Institutional Animal Care and Use Committee at the University of Central Florida and conformed to NIH guidelines. After 4 div, the adult hippocampal neurons on the DETA cover slips were passaged to MEAs. Briefly, neurons were dislodged from the DETA with trypsin (0.05% trypsin/EDTA in HBSS, Gibco, 25200). Trypsin inhibitor (trypsin inhibitor, soybean, Gibco, 17075-029) in Dissociation medium at 0.5 mg per ml deactivated the trypsin. The dislodged neurons were collected and spun at 500×g for 5 minutes. The supernatant of deactivated trypsin in HBSS was discarded, and the neuronal cell pellet was suspended in 1 ml Plating medium. Immunocytochemistry and Laser Scanning Confocal Microscopy
(§1) The MEA chips (Axion Biosystems) provided 64 platinum-black coated gold-electrodes with a diameter of 30 μm, organized in an 8 by 8 array with 200 μm pitch. Clean MEAs were sterilized with 70% alcohol and then incubated with 1 ml poly-L-lysine (100 μg/ml) for 30 minutes. An area just large enough to cover all electrodes was additionally coated with 3 μl laminin (2 μg/ml) over night. Embryonic rat hippocampal neurons were plated directly on MEAs at a density of 500 cells/mm2. Adult rat hippocampal neurons were first cultured on DETA coated cover slips for recovery. […] After 4 days on DETA cover slips, the adult neurons were passaged onto MEAs at a density of 500 cells/mm2. Every 2-3 days, half the medium was replaced with fresh Maintenance medium supplemented with 2 μM Rosc.
(§2) MEAs were incubated with their covers off to allow gas exchange but covered upon removal from the incubator to reduce contamination, media evaporation, and gas exchange while recordings were taken. The head stage of the recording system (Axion Biosystems) was pre-heated to 37° C. before MEAs with adult or embryonic hippocampal cultures were investigated. The activity of neuronal networks was recorded with 25 kHz using the software Axion's Integrated Studio (AxIS). Signal amplitudes 6 times larger than the standard deviation of the base line were detected as action-potential spikes. The spike data was then imported into Matlab 2010b (The MathWorks) for further processing.
Baseline spontaneous activity in adult and embryonic neurons was recorded for 3 minutes on 5 consecutive days per week, starting on 7 div. The synaptic antagonists D-(−)-2-Amino-5-phosphonopentanoic acid (D-APS, 25 μM, Tocris Bioscience, 0106), 6-Cyano-7-nitroquinoxaline-2,3-dione disodium (CNQX, 25 μM, Tocris Bioscience, 1045), and (−)-Bicuculline methobromide (Bicuculline, 50 μM, Tocris Bioscience, 0109) were separately administered to both adult and embryonic neurons on 14 div and at various time points between 30 and 60 div. […]

[3] = test system: embryonic rat hippocampal neurons on MEAs; test: MEA recording of spontaneous activity, embryonic hippocampal neurons; conditions: embryonic cultures
Protocol: Embryonic hippocampal neurons were cultured. Pregnant rats, 18 days in gestation, obtained from Charles River were euthanized with carbon dioxide and the fetuses were collected in ice-cold Hibernate E (BrainBits)/B27/Glutamaxtm/Antibiotic-antimycotic (Invitrogen) (Dissecting Medium). Each fetus was decapitated, and the whole brain was transferred to fresh ice cold dissecting medium. After isolation, the hippocampi were collected in a fresh tube of dissecting medium. The tissue was enzymatically digested at 37° C. for 10 minutes with papain (Worthington 3119), 12 mg/6 ml Hibernate-E (-calcium) (BrainBits)+0.5 mM Glutamax (Invitrogen). Hippocampal neurons were obtained by triturating the tissue using a fire-polished Pasteur pipette. After centrifugation, the cells were re-suspended in culture medium (Neurobasal/B27/Glutamaxtm/antibiotic-antimycotic) and plated on MEAs. All research was approved by the Institutional Animal Care and Use Committee at the University of Central Florida and conformed to NIH guidelines.
as §1, §2
Baseline spontaneous activity in adult and embryonic neurons was recorded for 3 minutes on 5 consecutive days per week, starting on 7 div. The synaptic antagonists D-(−)-2-Amino-5-phosphonopentanoic acid (D-APS, 25 μM, Tocris Bioscience, 0106), 6-Cyano-7-nitroquinoxaline-2,3-dione disodium (CNQX, 25 μM, Tocris Bioscience, 1045), and (−)-Bicuculline methobromide (Bicuculline, 50 μM, Tocris Bioscience, 0109) were separately administered to both adult and embryonic neurons on 14 div and at various time points between 30 and 60 div. Three minute recordings were made to quantify the effect from these antagonists on spontaneous activity. If necessary, additional baselines were recorded prior to the administration of antagonists. Each experiment was followed by a complete washout of the antagonist and replacement with fresh medium.
Data analysis was performed off-line using unpublished Matlab functions to evaluate spike files created during each MEA recording. […] In about 25% of the adult cultures and 14% of the embryonic cultures, portions of the neuronal networks detached from the substrate over time and especially after about 6 weeks. In order to accommodate the different numbers of active channels between MEAs, all values were corrected for the amount of active channels on an MEA. […]

## C[C@@]1(CO)[C@H](O)CC[C@@]2(C)[C@H]1CC[C@H]1C[C@@H]3C[C@@]12CC[C@]3(O)CO [aphidicolin, Aphidicolin]
[1]; aphidicolin 1.5 μM, 2 DIV
  regeneration of surviving neurons: limited regeneration of neurites and functional electrical properties
  survival of cultured neurons: caused most cultured neurons to either necrose or apoptose

## O=c1[nH]c(=O)n([C@H]2C[C@H](O)[C@@H](CO)O2)cc1F [FudR, Fluorodeoxyuridine]
[1]
  elimination of division of cultured neurons by mitotic inhibitors: all dividing cells were forced into apoptosis

## N#Cc1cc2c(cc1[N+](=O)[O-])=NC(=O)C(=O)N=2.[Na].[Na] [CNQX, 6-Cyano-7-nitroquinoxaline-2,3-dione disodium]
[2]; 25 μM CNQX, 14 div
  change in action potential frequency: not affected
[2]; 25 μM antagonist, 14 div
  loss of channel activity (active channels) versus baseline: 52±3%
[2]; 25 μM antagonist, 30-60 div
  loss of channel activity (active channels) versus baseline: 24±5%
  lowering (drop) of action potential frequency versus baseline: 31±6%
[3]; 25 μM CNQX, 14 div
  change in action potential frequency: not affected
[3]; 25 μM antagonist, 14 div
  loss of channel activity (active channels) versus baseline: 23±5%
[3]; 25 μM antagonist, 30-60 div
  decrease (drop) of firing rate versus baseline: 47±5%
  loss of channel activity (active channels) versus baseline: 0±7%

## CC[C@H](CO)Nc1nc(NCc2ccccc2)c2ncn(C(C)C)c2n1 [roscovitine]
[1]; 1 μM roscovitine applied on day 2, bFGF in medium
  neuronal cell population: the cell population increased more slowly than without roscovitine
[1]; 5 μM roscovitine days 2-7, 2 μM after day 7, on average
  extension of primary axons versus untreated control neurons: 4-5 times longer
[1]; 5 μM roscovitine on days 2-7 in vitro and 2 μM after day 7
  neuronal cell population: A stable population of neurons was achieved
[1]; 5 μM roscovitine on days 2-7 in vitro and 2 μM after day 7, listed as Rosc
  neuronal cell population: stable in vitro
[1]; 10 μM roscovitine applied on day 2
  neuronal cell population: caused a decrease in the neuronal population
[1]; 10 μM roscovitine introduced on day 7
  neuronal cell population: a sharp loss of neurons
[1]
  neuronal division after addition to the culture medium: neurons no longer divided
[1]; listed as Roscovitine
  neuronal division after addition to the culture medium: prevented neuronal mitotic activity
[1]; roscovitine treated, non-proliferating neurons, immunocytochemistry
  expression of neuronal and proliferation markers (MAP2, NeuN, Ki-67): expressed the mature neuronal markers MAP2 and NeuN, but lacked expression for the nuclear marker of proliferating cells, Ki-67

## bFGF: basic fibroblast growth factor (Invitrogen, 13256-029)
[1]; bFGF 5 ng/ml in medium
  neuronal cell proliferation: triggered neuronal cell proliferation until confluence

## Cc1c(C)c2c(c(C)c1O)CCC(C)(C(=O)O)O2 (stereo not drawn) [Trolox]
[1]; Trolox 40 and 100 μM, 2 DIV
  prevention of return of primary neurons to the cell cycle: not effective
[1]; Trolox in culture medium
  neuronal survival (antioxidant activity): improve neuronal survival

## Nc1ccn([C@@H]2O[C@H](CO)[C@@H](O)[C@@H]2O)c(=O)n1 [ara-C, arabinoside-D]
[1]
  elimination of division of cultured neurons by mitotic inhibitors: all dividing cells were forced into apoptosis
